In US5449787A, “N,N'-disubstituted amide derivatives” (Kyorin Pharmaceutical Co., Ltd., priority 1992, dated 1995):
pIC50: −log10 of the molar value. Counter-ions that a name gives are not always drawn.

Experiments:
5-HT3 receptor [1] = target: T1, 5-HT3 receptor (Rattus norvegicus, UniProt P35563); assay: 5-HT3 receptor-binding assay using [3H]GR65630 (rat cerebral cortex synaptic membrane); parameters: A crude specimen of synaptic membrane was prepared from the cerebral cortex of rat; from tissue; host or cells: rat cerebral cortex, crude synaptic membrane; details: [3H]GR65630 0.2-0.3 nM, 50 mM HEPES with Triton X-100, 30 minutes at 23° C., nonspecific: 100 μM metoclopramide
T1 sequence (P35563 24-483): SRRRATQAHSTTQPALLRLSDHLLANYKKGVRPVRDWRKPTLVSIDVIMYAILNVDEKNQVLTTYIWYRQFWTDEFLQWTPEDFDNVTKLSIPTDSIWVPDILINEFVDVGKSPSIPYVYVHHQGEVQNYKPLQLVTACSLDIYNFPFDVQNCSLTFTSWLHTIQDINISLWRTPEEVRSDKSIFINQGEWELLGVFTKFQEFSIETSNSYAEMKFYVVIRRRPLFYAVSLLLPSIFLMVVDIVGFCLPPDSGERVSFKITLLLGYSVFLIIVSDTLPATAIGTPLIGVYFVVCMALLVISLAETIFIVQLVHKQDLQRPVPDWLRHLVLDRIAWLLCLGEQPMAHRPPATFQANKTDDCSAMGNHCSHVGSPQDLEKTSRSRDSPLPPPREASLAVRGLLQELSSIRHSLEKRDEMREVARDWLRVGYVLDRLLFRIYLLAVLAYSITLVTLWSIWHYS
Source text: (§1) The compound of the present invention has an antagonistic action to 5-HT receptor, in particular, to 5-HT3 receptor. Affinity of the compound of the present invention to 5-HT3 receptor is shown by a receptor-binding assay [refer to Gavin J. Kilpatrick et al, Eur. J. Pharmacol., 159, 157 (1989)] using [^3 H]GR65630 for a tracer legend. Moreover, the antagonistic action to 5-HT3 receptor is shown through inhibition of von Bezold Jarisch reflex caused by intravenously administering 5-HT to rat.
The specific 5-HT3 receptor-binding assay was performed according to the method by G. J. Kilpatrick et al. using [^3 H] GR 65630 as a tracer ligand.
A crude specimen of synaptic membrane was prepared from the cerebral cortex of rat and used for experiment by suspending it into 50 mM IIEPES buffer (pl 7.4) added with Triton X-100.
Next, testing compounds of several kinds of concentration and tritium-labelled GR 65630 (final concentration 0.2-0.3 nM) were added to the suspension of membrane and allowed to react for 30 minutes at 23° C. After the reaction, the reaction mixture was filtered under suction and the filter was washed with 50 mM HEPES buffer. Then, the radioactivity left behind on the filter was determined with a liquid scintillation counter.
The nonspecific binding was determined in the presence of 100 μM metoclopramide.
Then, 50% inhibitory concentration (IC50) of the compounds of Examples 10 through 12 was determined graphically (Table 1).

5-HT3 receptor [2] = target: T1, 5-HT3 receptor; assay: Antagonistic action on von Bezold Jarisch reflex; type: in vivo; parameters: Under the anesthetization of rat with urethane/chloralose; from tissue; host or cells: whole anaesthetized rat (in vivo); receptor endogenous, by own knowledge on vagal afferents; details: urethane/chloralose-anesthetized rat, 5-HT 1 mg/kg intravenous; dose of test compound not given
Source text: as §1
The antagonistic action of testing compounds to 5-HT3 was assayed according to the method described in Naunyn-Schmiedeberg's Arch. Pharmacol., vol. 326, 36 (1984).
Under the anesthetization of rat with urethane/chloralose, the blood pressure was monitored with hemodynamometer frown carotid arteries and the heart rate was monitored from electrocardiogram.

| pIC50 (5-HT3 receptor [1]) | inhibition of reflex bradycardia caused by intravenous 5-HT (von Bezold Jarisch reflex) (5-HT3 receptor [2]) | SMILES |
| --- | --- | --- |
| 8.52 |  | CN(C)C1CCN(C(=O)c2nn(C)c3ccccc23)C1 (centres unmarked) [Example 11, 3-Dimethylamino-(1-methylindazol-3-ylcarbonyl)pyrrolidine hydrochloride] |
| 9.00 | inhibited the reflex bradycardia | CCN(C)[C@@H]1CN(C(=O)c2nn(C)c3ccccc23)C[C@@H]1C (relative stereo) [Example 10, Cis-3-(N-ethyl-N-methyl)amino-4-methyl-1-(1-methylind-azol-3-ylcarbonyl)pyrrolidine hydrochloride] |
| 8.70 | inhibited the reflex bradycardia | CCN(C)[C@@H]1CN(C(=O)c2cn(C)c3ccccc23)C[C@@H]1C (relative stereo) [Example 12, Cis-3-(N-ethyl-N-methyl)amino-4-methyl-1-(1-methylindol-3-ylcarbonyl)pyrrolidine hydrochloride] |
